{"source": "patent US20110137633A1", "about": "“ANTI-VIRAL COMPOUNDS AND METHODS OF IDENTIFYING THE SAME” (ABBOTT LABORATORIES, priority 2009, published 2011)", "key": {"HCV 1b replicon": {"system": "HCV 1b replicon", "assay": "HCV 1b replicon assay (luciferase reporter)", "assay_type": "cell-based, Hepatitis C virus genotype 1b-Con1", "details": "in vitro, relative to compound of FIG. 2A"}, "HCV 1a replicon": {"system": "HCV 1a replicon", "assay": "HCV 1a replicon assay (luciferase reporter)", "assay_type": "cell-based, Hepatitis C virus genotype 1a-H77", "details": "in vitro, relative to compound of FIG. 2A"}}, "data": [{"smiles": "CC(C)c1ccc2c(Nc3cc(C(=O)N[C@@H](C)c4ccccc4)ccc3Sc3ccc(N)cc3)ncnc2n1", "note": "[compound of FIG. 2B]", "values": [{"measurement": "increase in HCV replication inhibitory activities compared to the compound of FIG. 2A", "setting": "HCV 1b replicon", "result": "over 600 fold"}, {"measurement": "increase in HCV replication inhibitory activities compared to the compound of FIG. 2A", "setting": "HCV 1a replicon", "result": "over 1,000 fold"}]}]}
